Laboratory results published in PMC4057896 (Journal of molecular biology, 2014).
Entries after “also recorded” stand apart in the source; their conditions may differ.

Key:
hexon trimer [1] = assay: Native MS of endogenous hexon-pVIn complexes from heat-disrupted virions; type: binding, human adenovirus (Ad5F35)
hexon trimer [2] = assay: Native MS of hexon-pVIn reconstituted from purified hexon and synthetic pVIn; type: binding, human adenovirus (Ad5 hexon)
hexon trimers = details: in vitro; ref [15]; cited from earlier work
[3] = 150 mM ammonium acetate pH 5, released fraction
[4] = 1:2 hexon:pVIn, pH range 4–9, native MS, triplicate

| Substance | binding of pVIn to hexon trimer at pH 5 (hexon trimer [1]; [3]) | pVIn molecules/hexon trimer at pH 5 (hexon trimer [1]; [3]) | binding of pVIn to hexon trimer at pH 9 (hexon trimer [1]; 150 mM ammonium acetate pH 9, released fraction) | strength of hexon-pVIn interaction at cytosolic pH (hexon trimer [2]; [4]) | strength of hexon-pVIn interaction at endosomal pH (hexon trimer [2]; [4]) | dissociation of hexon-pVIn towards pH 8 (hexon trimer [2]; 1:2 hexon:pVIn, pVIn 1 µM, hexon trimer 0.5 µM, native MS, 150 mM ammonium acetate, triplicate) | residual endogenous pVIn bound to purified hexons (hexon trimer [2]; hexons isolated from virus-infected cells, no synthetic pVIn added, native MS) | affinity for hexon trimers (hexon trimers) |
| --- | --- | --- | --- | --- | --- | --- | --- | --- |
| MEDINFASLAPRHGSRPFMGNWQDIGTSNMSGG [pVIn] | nearly complete binding; also recorded: fully retained on hexon trimers | 3 pVIn molecules/hexon trimer | only free hexon trimers were recovered and detected | relatively weak | strongest | near-complete dissociation | approximately 3 % of maximum occupancy |  |
| pVI: 250 aa precursor of human adenovirus minor capsid protein VI |  |  |  |  |  |  |  | high affinity; also recorded: nanomolar affinity |
